Among the data in patent publication US10577378B2, “EIF4A-inhibiting compounds and methods related thereto” (eFFECTOR Therapeutics, Inc., priority 2015, dated 2020) are IC50 values, retold here.

Some results are limits rather than exact numbers.

One experiment has as its system MDA-MB-231 human breast cancer cells. Kind of experiment: Cell proliferation assay (CellTiter-Glo, 72 hours treatment). The note with it: Homo sapiens, MDA-MB-231, 72 h, read-out: MDA-MB-231 cell proliferation assay (IC50). Format: cell-based. The method, boiled down: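 MDA-MB-231 cells seeded at 2,500 cells/well, treated next day with compound or DMSO vehicle for 72 h at 37 °C. Proliferation read by CellTiter-Glo; IC50 from sigmoidal non-linear regression, binned as +++ (<100 nM), ++ (100–1000 nM), + (>1000 nM).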
For orientation: Cellular ATP, detected with luciferase, serves as a proxy for viable cell number.
In the case of `COc1cncc2c1[C@]1(O)C(=O)C(C(=O)N(C)C)[C@@H](c3ccccc3)[C@]1(c1ccc(Br)cc1)O2` (mixture of isomers) [192F, Rac-(4bR,7S,7aR)-7a-(4-bromophenyl)-4b-hydroxy-4-methoxy-N,N-dimethyl-5-oxo-7-phenyl-4b,6,7,7a-tetrahydro-5H-cyclopenta[4,5]furo[2,3-c]pyridine-6-carboxamide], the IC50 was greater than 1000 nM.

The experiment is the same for the next values; noted with them: Homo sapiens; MDA-MB-231 cells, 72 hours at 37° C., CellTiter-Glo; read-out: MDA-MB-231 cell proliferation assay (IC50).
With `COC(=O)[C@@H]1C(c2ccccc2)[C@]2(c3ccc(I)cc3)Oc3cncc(OC)c3[C@]2(O)[C@@H]1O` (mixture of isomers) [193F, Rac-Methyl (4bS,5R,6R,7aR)-4b,5-dihydroxy-7a-(4-iodophenyl)-4-methoxy-7-phenyl-4b,6,7,7a-tetrahydro-5H-cyclopenta[4,5]furo[2,3-c]pyridine-6-carboxylate], the IC50 lay within 100 to 1000 nM.
Still for that read-out and setting: the value for `COc1cncc2c1[C@]1(O)[C@H](O)[C@H](CN3CCN(C(C)=O)CC3)[C@@H](c3ccccc3)[C@]1(c1ccc(C#N)cc1)O2` (racemic) [194F, Rac-4-((4bS,5R,6S,7S,7aR)-6-((4-acetylpiperazin-1-yl)methyl)-4b,5-dihydroxy-4-methoxy-7-phenyl-4b,5,6,7-tetrahydro-7aH-cyclopenta[4,5]furo[2,3-c]pyridin-7a-yl)benzonitrile] was greater than 1000 nM.
Turning to `COc1nc(Cl)cc2c1[C@]1(O)[C@H](O)[C@H](CNCC(F)F)[C@@H](c3ccccc3)[C@]1(c1ccc(C#N)cc1)O2` (racemic) [196F, Rac-4-((5aR,6S,7S,8R,8aS)-3-chloro-7-(((2,2-difluoroethyl)amino)methyl)-8,8a-dihydroxy-1-methoxy-6-phenyl-6,7,8,8a-tetrahydro-5aH-cyclopenta[4,5]furo[3,2-c]pyridin-5a-yl)benzonitrile], the IC50 is less than 100 nM.
Still for that read-out and setting: the value for `COc1nc(C#N)cc2c1[C@]1(O)[C@H](O)[C@H](CNCC(F)F)[C@@H](c3ccccc3)[C@]1(c1ccc(C#N)cc1)O2` (racemic) [197F, Rac-(5aR,6S,7S,8R,8aS)-5a-(4-cyanophenyl)-7-(((2,2-difluoroethyl)amino)methyl)-8,8a-dihydroxy-1-methoxy-6-phenyl-5a,7,8,8a-tetrahydro-6H-cyclopenta[4,5]furo[3,2-c]pyridine-3-carbonitrile] was 100 to 1000 nM.
Still for that read-out and setting: the value for `COc1nc(C#N)cc2c1[C@]1(O)[C@H](O)[C@H](CN3CCN(C)CC3)[C@@H](c3ccccc3)[C@]1(c1ccc(C#N)cc1)O2` (racemic) [198Fb, Rac-(5aR,6S,7S,8R,8aS)-5a-(4-cyanophenyl)-8,8a-dihydroxy-1-methoxy-7-((4-methylpiperazin-1-yl)methyl)-6-phenyl-5a,7,8,8a-tetrahydro-6H-cyclopenta[4,5]furo[3,2-c]pyridine-3-carbonitrile] was less than 100 nM.
Take `COc1nc(Cl)cc2c1[C@]1(O)[C@@H](CN3CCOCC3)[C@H](CO)[C@@H](c3ccccc3)[C@]1(c1ccc(Br)cc1)O2` (racemic) [199F, Rac-(5aR,6S,7R,8R,8aR)-5a-(4-bromophenyl)-3-chloro-7-(hydroxymethyl)-1-methoxy-8-(morpholinomethyl)-6-phenyl-5a,6,7,8-tetrahydro-8aH-cyclopenta[4,5]furo[3,2-c]pyridin-8a-ol]: the IC50 is less than 100 nM.
Same read-out and setting: the value for `COc1nc(C#N)cc2c1[C@]1(O)[C@@H](CN3CCOCC3)[C@H](CO)[C@@H](c3ccccc3)[C@]1(c1ccc(C#N)cc1)O2` (racemic) [200F, Rac-(5aR,6S,7R,8R,8aR)-5a-(4-cyanophenyl)-8a-hydroxy-7-(hydroxymethyl)-1-methoxy-8-(morpholinomethyl)-6-phenyl-5a,7,8,8a-tetrahydro-6H-cyclopenta[4,5]furo[3,2-c]pyridine-3-carbonitrile] was less than 100 nM; that for `COc1cncc2c1[C@]1(O)[C@@H](CN3CC4(COC4)C3)[C@H](CO)[C@@H](c3ccccc3)[C@]1(c1ccc(C#N)cc1)O2` (racemic) [202F, Rac-4-((4bR,5R,6R,7S,7aR)-5-((2-oxa-6-azaspiro[3.3]heptan-6-yl)methyl)-4b-hydroxy-6-(hydroxymethyl)-4-methoxy-7-phenyl-4b,5,6,7-tetrahydro-7aH-cyclopenta[4,5]furo[2,3-c]pyridin-7a-yl)benzonitrile] was less than 100 nM.
Turning to `COc1cncc2c1[C@]1(O)[C@@H](CNCc3ccnn3C)[C@H](CO)[C@@H](c3ccccc3)[C@]1(c1ccc(Br)cc1)O2` (racemic) [203F, Rac-(4bR,5R,6R,7S,7aR)-7a-(4-bromophenyl)-6-(hydroxymethyl)-4-methoxy-5-((((1-methyl-1H-pyrazol-5-yl)methyl)amino)methyl)-7-phenyl-5,6,7,7a-tetrahydro-4bH-cyclopenta[4,5]furo[2,3-c]pyridin-4b-ol], the IC50 was less than 100 nM.
For `COc1cncc2c1[C@]1(O)[C@@H](CNCc3ccnn3C)[C@H](CO)[C@@H](c3ccccc3)[C@]1(c1ccc(C#N)cc1)O2` (racemic) [204F, Rac-4-((4bR,5R,6R,7S,7aR)-4b-hydroxy-6-(hydroxymethyl)-4-methoxy-5-((((1-methyl-1H-pyrazol-5-yl)methyl)amino)methyl)-7-phenyl-4b,5,6,7-tetrahydro-7aH-cyclopenta[4,5]furo[2,3-c]pyridin-7a-yl)benzonitrile], the IC50 was less than 100 nM.
On the same count and under the same terms, to `COc1cncc2c1[C@]1(O)[C@@H](CN(C)C)[C@H](CO)[C@@H](c3ccccc3)[C@]1(c1ccc(Br)cc1)O2` (racemic) [205F, Rac-(4bR,5R,6R,7S,7aR)-7a-(4-bromophenyl)-5-((dimethylamino)methyl)-6-(hydroxymethyl)-4-methoxy-7-phenyl-5,6,7,7a-tetrahydro-4bH-cyclopenta[4,5]furo[2,3-c]pyridin-4b-ol] belongs less than 100 nM.
Consider `COc1cncc2c1[C@]1(O)[C@@H](CN(C)C)[C@H](CO)[C@@H](c3ccccc3)[C@]1(c1ccc(C#N)cc1)O2` (racemic) [206F, Rac-4-((4bR,5R,6R,7S,7aR)-5-((dimethylamino)methyl)-4b-hydroxy-6-(hydroxymethyl)-4-methoxy-7-phenyl-4b,5,6,7-tetrahydro-7aH-cyclopenta[4,5]furo[2,3-c]pyridin-7a-yl)benzonitrile], for which the IC50 is less than 100 nM.
Same read-out and setting: the value for `COc1nc(C#N)cc2c1[C@]1(O)[C@H](O)[C@H](CN3CC(F)(F)C3)[C@@H](c3ccccc3)[C@]1(c1ccc(C#N)cc1)O2` (racemic) [207Fa, Rac-(5aR,6S,7S,8R,8aS)-5a-(4-cyanophenyl)-7-((3,3-difluoroazetidin-1-yl)methyl)-8,8a-dihydroxy-1-methoxy-6-phenyl-5a,7,8,8a-tetrahydro-6H-cyclopenta[4,5]furo[3,2-c]pyridine-3-carbonitrile] was 100 to 1000 nM; that for `COc1nc(Cl)cc2c1[C@]1(O)[C@H](O)[C@H](CN3CC(F)(F)C3)[C@@H](c3ccccc3)[C@]1(c1ccc(C#N)cc1)O2` (racemic) [207Fb, Rac-4-((5aR,6S,7S,8R,8aS)-3-chloro-7-((3,3-difluoroazetidin-1-yl)methyl)-8,8a-dihydroxy-1-methoxy-6-phenyl-6,7,8,8a-tetrahydro-5aH-cyclopenta[4,5]furo[3,2-c]pyridin-5a-yl)benzonitrile] was 100 to 1000 nM.
The same measure, in the same setting: the value for `COc1nc(C#N)cc2c1[C@]1(O)[C@H](O)[C@H](CN(C)CC(F)F)[C@@H](c3ccccc3)[C@]1(c1ccc(C#N)cc1)O2` (racemic) [208Fa, Rac-(5aR,6S,7S,8R,8aS)-5a-(4-cyanophenyl)-7-(((2,2-difluoroethyl)(methyl)amino)methyl)-8,8a-dihydroxy-1-methoxy-6-phenyl-5a,7,8,8a-tetrahydro-6H-cyclopenta[4,5]furo[3,2-c]pyridine-3-carbonitrile] was 100 to 1000 nM.
Still for that read-out and setting: the value for `COc1nc(Cl)cc2c1[C@]1(O)[C@H](O)[C@H](CN(C)CC(F)F)[C@@H](c3ccccc3)[C@]1(c1ccc(C#N)cc1)O2` (racemic) [208Fb, Rac-4-((5aR,6S,7S,8R,8aS)-3-chloro-7-(((2,2-difluoroethyl)(methyl)amino)methyl)-8,8a-dihydroxy-1-methoxy-6-phenyl-6,7,8,8a-tetrahydro-5aH-cyclopenta[4,5]furo[3,2-c]pyridin-5a-yl)benzonitrile] was 100 to 1000 nM; that for `COc1nc(Cl)cc2c1[C@]1(O)[C@@H](CN(C)C)[C@H](CO)[C@@H](c3ccccc3)[C@]1(c1ccc(Br)cc1)O2` (racemic) [209F, Rac-(5aR,6S,7R,8R,8aR)-5a-(4-bromophenyl)-3-chloro-8-((dimethylamino)methyl)-7-(hydroxymethyl)-1-methoxy-6-phenyl-5a,6,7,8-tetrahydro-8aH-cyclopenta[4,5]furo[3,2-c]pyridin-8a-ol] was less than 100 nM.
Consider `COc1nc(C#N)cc2c1[C@]1(O)[C@@H](CN(C)C)[C@H](CO)[C@@H](c3ccccc3)[C@]1(c1ccc(C#N)cc1)O2` (racemic) [210F, Rac-(5aR,6S,7R,8R,8aR)-5a-(4-cyanophenyl)-8-((dimethylamino)methyl)-8a-hydroxy-7-(hydroxymethyl)-1-methoxy-6-phenyl-5a,7,8,8a-tetrahydro-6H-cyclopenta[4,5]furo[3,2-c]pyridine-3-carbonitrile], for which the IC50 is less than 100 nM.
Same read-out and setting: to `COc1nc(C#N)cc2c1[C@]1(O)[C@H](O)[C@H](CN3CC(F)C3)[C@@H](c3ccccc3)[C@]1(c1ccc(C#N)cc1)O2` (racemic) [211Fa, Rac-(5aR,6S,7S,8R,8aS)-5a-(4-cyanophenyl)-7-((3-fluoroazetidin-1-yl)methyl)-8,8a-dihydroxy-1-methoxy-6-phenyl-5a,7,8,8a-tetrahydro-6H-cyclopenta[4,5]furo[3,2-c]pyridine-3-carbonitrile] belongs less than 100 nM.
Regarding `COc1nc(Cl)cc2c1[C@]1(O)[C@H](O)[C@H](CN3CC(F)C3)[C@@H](c3ccccc3)[C@]1(c1ccc(C#N)cc1)O2` (racemic) [211Fb, Rac-4-((5aR,6S,7S,8R,8aS)-3-chloro-7-((3-fluoroazetidin-1-yl)methyl)-8,8a-dihydroxy-1-methoxy-6-phenyl-6,7,8,8a-tetrahydro-5aH-cyclopenta[4,5]furo[3,2-c]pyridin-5a-yl)benzonitrile], the IC50 was less than 100 nM.
